{
  "source": "patent US9856480B2",
  "about": "“Dnazyme for silencing the expression of EGFR” (DCB-USA LLC, priority 2013, dated 2018)",
  "key": {"T790M EGFR mRNA": {"tested_on": "T790M EGFR mRNA", "test": "Real-time PCR of EGFR mRNA knockdown", "format": "cell-based, human", "details": "100 nM with lipofectamine 2000, 48 h", "method": "(§1) A549, CL1-5, H1975, or CL97 was seeded onto 6-well at 3×10^5 cells/well and cultured overnight. Then, cells were separately treated with 100 nM DzControl or DzT790M-1 with lipofectamine 2000 (Invitrogen). After 48 h, total mRNA were extracted from DNAzyme-treated cells by Mestrisol following manufacturer's protocol. cDNA were synthesized by using RT III kit with random hexamers as primers (Invitrogen). The PCR primers were synthesized by Genomics BioSci & Tech (Taipei, Taiwan). The sequences of PCR primers are listed as follows: […]\n(§2) The parameters for PCR were: 95° C. for 10 min, then 25 cycles of PCR at 95° C. for 30 s, 60° C. for 30 s, and 72° C. for 60 s. 3% agarose gels were used for electrophoresis of PCR products. The intensity of bands were quantified by Image J. Quantitative RT-PCR was performed on 40 ng total mRNA with the LightCycler 480 system (Roche). The PCR mix contained 5 μl of 2× Probe Master mix, 100 nM of UPL probe (Roche Diagnostics, Penzberg, Germany), 200 nM of forward primer and reverse primer, 0.1 ul RNAseout (Invitrogen), and 0.025 ul RTIII enzyme (Invitrogen) in a total volume of 10 μl. PCR parameters were as follows: 50° C. for 40 min, then 45 cycles of PCR at 95° C. for 10 s, 60° C. for 10 s, and 72° C. for 2 s. Data were analyzed by LC480 software (Roche Diagnostics, Penzberg, Germany). The relative amount of EGFR mRNA was normalized to ACTB mRNA. The sequences of PCR primers are as follows: […]\n(§3) To examine the allele selectivity of DzT790M-1, EGFR mRNA knockdown efficiency was detected in two cell lines harboring wild-type EGFR (A549, CL1-5) and two cell lines containing EGFR T790M mutation (H1975, CL97). A549, CL1-5, H1975, or CL97 was seeded onto 6-well at 3×10^5 cells/well and cultured overnight. Then, cells were separately treated with 100 nM DzControl or DzT790M-1 with lipofectamine 2000 (Invitrogen). After 48 h, total mRNA was extracted. […] DzT790M-1 knocked down 68.2% and 77.4% T790M EGFR mRNA expression in H1975 and CL97 cells respectively. In contrast, in A549 and CL1-5 cells, only 1.1% and 19.2% wild-type EGFR mRNA expression was affected."}, "wild-type EGFR mRNA": {"tested_on": "wild-type EGFR mRNA", "test": "Real-time PCR of EGFR mRNA knockdown", "format": "cell-based, human", "details": "100 nM with lipofectamine 2000, 48 h", "method": "as §1, §2, §3"}, "[1]": {"tested_on": "T790M-harboring cancer cells", "test": "Anti-proliferation comparison of T790M DNAzymes", "format": "cell-based"}, "H1975 xenograft tumor": {"tested_on": "H1975 xenograft tumor", "test": "In vivo tumorigenesis assay, intratumoral DNAzyme", "set-up": "species or system Balb/c Nude mice", "method": "(§4) 8-week-old Balb/c Nude mice were subcutaneously inoculated with 2×10^6 H1975 cells. After 7 days, mice were randomly divided into two groups consisting of ten mice in each group (DzControl or DzT790M-1). 500 pmoles of DzControl or DzT790M-1 mixed with lipofectamine 2000 were injected intratumorally at frequency of twice per week until completion of the experiments. The sizes of tumor were measured every 3-4 days. All the animal studies were performed according to the protocols approved by the Laboratory Animal Center, Academia Sinica. After the mice were sacrificed, the tumor tissues were excised and fixed by 10% formalin and embedded in paraffin. Xenograft tumor slides were stained for hematoxylin and eosin and analyzed with microscopy.\nas §4, with “All the animal studies were performed according to the protocols approved by the Laboratory Animal Center, Academia Sinica.” left out, “microscopy. […] To assess the effects of DzT790M-1 on EGFR expression and downstream signaling, tumors taken from the Balb/c Nude mice were processed for western blotting.” for “microscopy.”"}, "cleaved PARP": {"tested_on": "cleaved PARP", "test": "Immunoblotting against cleaved form of PARP", "format": "cell-based, human", "details": "H1975 and CL97 cells; 100 nM", "method": "A549, CL1-5, H1975, or CL97 was seeded onto 6-well at 3×10^5 cells/well and cultured overnight. Then, cells were separately treated with 100 nM DzControl or DzT790M-1 with lipofectamine 2000 (Invitrogen). The transfected A549 and CL1-5 cells were serum-starved for 24 h and treated with 100 ng/ml of EGF at 37° C. for 15 min. 72 h after transfection, cell were collected for analysis. Cells were washed twice by ice-cold PBS and then total protein was extracted by RIPA buffer with protease inhibitor (Roche). 50 μg of total protein from the supernatants were boiled for 5 min at 95° C. The samples were resolved on 10% SDS-PAGE gel and transferred onto nitrocellulose membranes. EGFR expression and downstream signaling were detected by using primary antibodies specific to human pEGFR(Y1068) (Cell signaling), tEGFR (Santa Cruz), pSTAT3 (Y705) (Cell signaling), tSTAT3 (Cell signaling), pAKT (5473)(Cell signaling), tAKT (Santa Cruz), pERK (T202/Y204) (Cell signaling), tERK (Santa Cruz), and cleaved PARP (Cell signaling) at 1:1000 dilution and β-actin (Santa Cruz) at 1:10000 dilution, respectively. […]\nEGFR and downstream signaling pathway regulates important cell functions including cell proliferation and survival. In order to examine functional effects of DzT790M-1 on cell survival, the number of cells was counted after DzControl or DzT790M-1 transfection respectively. […]"}, "[2]": {"details": "500 pmoles intratumorally twice per week"}},
  "note": "Strand notation (5' to 3'): a small letter for the sugar, then the base; units joined by * are phosphorothioate-linked, units joined directly phosphodiester-linked; [ ] holds rarer units or linkages, { } end groups; capitals alone tell only the bases. d = 2'-deoxy (DNA)",
  "data": [
    {"substance": "DzT790M-1: 10-23 DNAzyme against EGFR T790M mRNA, arms 10/4, phosphorothioate ends: AGCTGCATGAGGCTAGCTACAACGAGAGC (DNA dA*dGdCdTdGdCdAdTdGdAdGdGdCdTdAdGdCdTdAdCdAdAdCdGdAdGdAdG*dC; further chemistry not fully specified)", "values": [
      {"measurement": "remained EGFR mRNA expression (real-time PCR)", "setting": "T790M EGFR mRNA; CL97 cells", "value": 54, "unit": "%"},
      {"measurement": "remained EGFR mRNA expression (real-time PCR)", "setting": "T790M EGFR mRNA; H1975 cells", "value": 32, "unit": "%"},
      {"measurement": "remained EGFR mRNA expression (real-time PCR)", "setting": "wild-type EGFR mRNA; A549 cells", "value": 121, "unit": "%"},
      {"measurement": "remained EGFR mRNA expression (real-time PCR)", "setting": "wild-type EGFR mRNA; CL1-5 cells", "value": 95, "unit": "%"},
      {"measurement": "anti-proliferation effect on T790M-harboring cancer cells, ranking among SEQ ID NOs:1-7", "setting": "[1]", "value": "most effective"},
      {"measurement": "total EGFR, pEGFR, pSTAT3, pAKT, pERK expression in xenograft tumor tissue (western blotting)", "setting": "H1975 xenograft tumor; [2]", "value": "significantly suppressed"},
      {"measurement": "tumor tissue histology (hematoxylin and eosin)", "setting": "H1975 xenograft tumor; [2]", "value": "Severe necrosis"},
      {"measurement": "tumor growth", "setting": "H1975 xenograft tumor; 500 pmoles with lipofectamine 2000 intratumorally twice per week, vs DzControl", "value": "significantly suppressed"},
      {"measurement": "level of cleaved PARP compared to DzControl treated group", "setting": "cleaved PARP", "value": "increased level"}
    ]}
  ]
}
